Experimental data reported in US5609749A, “Electrochemical assay method with novel p-phenylenediamine compound” (Mochida Pharmaceutical Co., Ltd., priority 1993, dated 1997).

What was measured:
hCG = assay: Measurement of hCG in whole blood with specific binding assay device (MEDIA method), freeze-dried electron mediator member; parameters: species or system human; settings: hCG 0 vs 1,000 IU/l whole blood, -150 mV
Procedure: The specific binding assay device shown in FIGS. 2 and 3 was constructed, and concentration of hCG in samples was measured using the device. The HRPO-HM81 obtained in the above step (1) was diluted with a phosphate buffer (pH 6.0) containing 5% normal rabbit serum (NRS), 10% saccharose and 0.1M NaCl to prepare a solution having a peroxidase activity of 0.63 U/ml. Next, 140 μl of the solution was spotted on a circular filter paper piece of 12 mm in diameter punched out from glass fiber filter paper (GA100, manufactured by Advantech Toyo) and then freeze-dried to obtain an HRPO-HM81 freeze-dry member to be used as the labeled antibody-impregnatedmember 14. The THEPD obtained in Synthesis Example 3 was dissolved in a phosphate buffer (pH 6.0) containing 0.1M NaCl to prepare a 5.0 mM solution. Next, 140 μl of the solution was spotted on a circular filter paper piece of 12 mm in diameter punched out from glass fiber filter paper (GA100, manufactured by Advantech Toyo) and then freeze-dried to obtain a THEPD freeze-dry member to be used as the electron mediator-impregnated member 16 of the present invention. The TEPD obtained in Synthesis Example 1 was dissolved in a phosphate buffer (pH 6.0) containing 1M NaCl to prepare a 5.0 mM solution. […]

[1] = target: T1, Horseradish peroxidase (HRPO) (Armoracia rusticana, UniProt P00433); assay: Electron transfer activity 2: HRPO-hydrogen peroxide-compound, current at -80 mV or -150 mV; type: biochemical; settings: -80 mV or -150 mV vs Ag/AgCl, pH 6.0
T1 construct: purchased TOYOBO
T1 sequence (P00433 31-338 limits assumed): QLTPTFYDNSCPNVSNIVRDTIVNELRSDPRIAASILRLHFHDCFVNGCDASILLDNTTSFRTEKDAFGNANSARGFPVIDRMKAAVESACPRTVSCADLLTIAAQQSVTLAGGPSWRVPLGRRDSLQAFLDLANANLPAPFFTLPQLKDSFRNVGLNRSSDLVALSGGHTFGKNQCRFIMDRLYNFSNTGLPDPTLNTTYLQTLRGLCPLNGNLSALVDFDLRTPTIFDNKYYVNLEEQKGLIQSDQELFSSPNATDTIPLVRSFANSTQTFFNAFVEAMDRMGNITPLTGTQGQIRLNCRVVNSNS
Procedure: Measurement of electron transfer activities of TCPD, THEPD, TDHPD, HTEPD, N,N-BHDPD, N,N'-BHPD, N,N'-BHDPD, and p-phenylenediamine derivatives having substituted amino group by reacting p-phenylenediamine with propyleneoxide--2
Horseradish peroxidase (HRPO, manufactured by TOYOBO) was dissolved in 0.1M phosphate buffer (pH 6.0) containing 0.1M NaCl to prepare 0M and 5.0×10^-7 M HRPO solutions. Also, hydrogen peroxide (manufactured by Wako Pure Chemical Industries) was dissolved in the same buffer to prepare a 1.0×10^-1 M solution. In the same manner, each of the TCPD, THEPD, TDHPD, HTEPD, N,N-BHDPD, N,N'-BHPD, N,N'-BHDPD, and p-phenylenediamine derivatives having substituted amino group by reacting p-phenylenediamine with propyleneoxide obtained in Synthesis Examples 1 to 9 was dissolved in the same buffer to prepare a 5.0×10^-3 M solution.
Each of these solutions was mixed in 0.1M phosphate buffer (pH 6.0) containing 0.1M NaCl in the following mixing ratio just before the measurement to prepare solutions of the following compositions A and B, and electric current was measured continuously in the presence (composition A) or absence (composition B) of HRPO.
Using the same apparatus of Test Example 2, electric current was measured in the presence (composition A) or absence (composition B) of HRPO for 5 or 10 minutes after application of potential of -80 mV (vs Ag/AgCl, the same shall apply hereinafter) in the case of TEPD, THEPD, and TDHPD, or -150 mV in the case of TCPD, HTEPD, N,N-BHDPD, N,N'-BHPD, N,N'-BHDPD, and p-phenylenediamine derivatives having substituted amino group by reacting p-phenylenediamine with propyleneoxide.

SMILES | electric current response to hCG concentration (hCG) | function as electron mediator between HRPO and the electrode [1]
Cl.Cl.OCCN(CCO)c1ccc(N(CCO)CCO)cc1 [THEPD, N,N,N',N'-tetrakis-(2'-hydroxyethyl)-p-phenylenediamine dihydrochloride] | the reduction current became high in response to the concentration of hCG | function as a reversible electron mediator between HRPO and the electrode
CCN(CC)c1ccc(N(CC)CC)cc1.Cl.Cl [TEPD, N,N,N',N'-tetraethyl-p-phenylenediamine dihydrochloride, reference compound] | the electric current did not increase in response to the concentration of hCG | function as a reversible electron mediator between HRPO and the electrode
